Laboratory results taken from patent US12539299B2, “Oral formulation of a therapeutic compound” (ARDELYX, INC., priority 2020, dated 2026).

Legend:
[1] = tested on: patients with hyperphosphatemia; details: clinical; cited from earlier work
[2] = Dissolution of capsule and tablet prototypes, USP apparatus II (paddle), 75 rpm, 900 mL media, 37° C.; format: physicochemical; details: comparison between forms, prototypes or pH
Description: FIG. 1: Dissolution of 15 mg tenapanor HCl tablets and tenapanor free base tablets in FeSSIF media pH 5.0. Dissolution method: USP apparatus II (paddle), 75 rpm, 900 mL of media at 37° C. FIG. 2: Dissolution of capsule I, neat tenapanor HCl powder in HPMC capsules (Vcaps® from Capsugel®) in FaSSIF media pH 6.5, FeSSIF media pH 5 and in 0.1N HCl. Dissolution method: USP apparatus II (paddle), 75 rpm, 900 mL of media at 37° C. […] Below are the composition of some of the capsule and tablet formulations as well as maximum dissolution observed in 0.1N HCl, pH 5 FeSSIF media and pH 6 FaSSIF media. Tablets from the same prototype designation differed by tenapanor loading and salt/free-base form but had the same disintegrant, glidant and lubricant excipients in the same % w/w but varied in the % w/w of tenapanor and filler making up the remainder of tablet.

[3] = tested on: animal model of IBS-like colonic hypersensitivity; details: cited from earlier work
[4] = tested on: Irritable Bowel Syndrome with Constipation (IBS-C) patients; details: bis-HCl salt form, clinical; cited from earlier work

dissolution, comparison in words [2]: better dissolution at low pH
SMILES: CN1Cc2c(Cl)cc(Cl)cc2[C@H](c2cccc(S(=O)(=O)NCCOCCOCCNC(=O)NCCCCNC(=O)NCCOCCOCCNS(=O)(=O)c3cccc([C@@H]4CN(C)Cc5c(Cl)cc(Cl)cc54)c3)c2)C1 [tenapanor, 1-[2-[2-[2-[[3-[(4S)-6,8-dichloro-2-methyl-3,4-dihydro-1H-isoquinolin-4-yl]phenyl]sulfonylamino]ethoxy]ethoxy]ethyl]-3-[4-[2-[2-[2-[[3-[(4S)-6,8-dichloro-2-methyl-3,4-dihydro-1H-isoquinolin-4-yl]phenyl]sulfonylamino]ethoxy]ethoxy]ethylcarbamoylamino]butyl]urea]
serum phosphate [1]: lower serum phosphate
colonic sensory neuronal excitability and TRPV1 currents [3]: normalized colonic sensory neuronal excitability and Transient Receptor Potential Vanilloid 1 (TRPV1) currents
visceral hyperalgesia [3]: reduced visceral hyperalgesia
abdominal pain [4]: reduce abdominal pain
